The values below come from patent publication US8969388B1, “Substituted pyrazolone compounds and methods of use” (Calitor Sciences, LLC, priority 2012, dated 2015).

The nature of data set [1]: Pharmacokinetics after intravenous and oral administration in rats. Type of data set: in vivo. As to conditions: for F: oral bioavailability, oral dose not given; for AUC(0-t) / half-life / Vd: rat, plasma; for clearance (CL) after iv dosing / AUC(0-t) / half-life / Vd: iv dosing; for Vd: read-out: Vss. As to the method: The compounds disclosed herein are assessed in pharmacokinetic studies in mice, rats, dogs or monkeys. The compounds are administered as a water solution, 2% HPMC+1% TWEEN®80 in water solution, 5% DMSO+5% solutol in saline, 4% MC suspension or capsule. For the intravenous administration, the animals are generally given at 1 or 2 mg/kg dose. For the oral (p.o.) dosing, mice and rats are generally given 5 or 10 mg/kg dose, and dogs and monkeys are generally given 10 mg/kg dose. The blood samples (0.3 mL) are drawn at 0.25, 0.5, 1.0, 2.0, 3.0, 4.0, 6.0, 8.0, 12 and 24 h time points or 0.083, 0.25, 0.5, 1.0, 2.0, 4.0, 6.0, 8.0 and 24 h time points and centrifuged at 3,000 or 4000 rpm for 2 to 10 min. The plasma solutions are collected, stored at −20° C. or −70° C. until analyzed by LC/MS/MS as described above.

The target of data set [2] is T1, KDR (h) (Homo sapiens, UniProt P35968).
T1 construct: host or cells: E. coli BL21-derived host (T7 phage) or HEK-293
T1 sequence (P35968 20-1356): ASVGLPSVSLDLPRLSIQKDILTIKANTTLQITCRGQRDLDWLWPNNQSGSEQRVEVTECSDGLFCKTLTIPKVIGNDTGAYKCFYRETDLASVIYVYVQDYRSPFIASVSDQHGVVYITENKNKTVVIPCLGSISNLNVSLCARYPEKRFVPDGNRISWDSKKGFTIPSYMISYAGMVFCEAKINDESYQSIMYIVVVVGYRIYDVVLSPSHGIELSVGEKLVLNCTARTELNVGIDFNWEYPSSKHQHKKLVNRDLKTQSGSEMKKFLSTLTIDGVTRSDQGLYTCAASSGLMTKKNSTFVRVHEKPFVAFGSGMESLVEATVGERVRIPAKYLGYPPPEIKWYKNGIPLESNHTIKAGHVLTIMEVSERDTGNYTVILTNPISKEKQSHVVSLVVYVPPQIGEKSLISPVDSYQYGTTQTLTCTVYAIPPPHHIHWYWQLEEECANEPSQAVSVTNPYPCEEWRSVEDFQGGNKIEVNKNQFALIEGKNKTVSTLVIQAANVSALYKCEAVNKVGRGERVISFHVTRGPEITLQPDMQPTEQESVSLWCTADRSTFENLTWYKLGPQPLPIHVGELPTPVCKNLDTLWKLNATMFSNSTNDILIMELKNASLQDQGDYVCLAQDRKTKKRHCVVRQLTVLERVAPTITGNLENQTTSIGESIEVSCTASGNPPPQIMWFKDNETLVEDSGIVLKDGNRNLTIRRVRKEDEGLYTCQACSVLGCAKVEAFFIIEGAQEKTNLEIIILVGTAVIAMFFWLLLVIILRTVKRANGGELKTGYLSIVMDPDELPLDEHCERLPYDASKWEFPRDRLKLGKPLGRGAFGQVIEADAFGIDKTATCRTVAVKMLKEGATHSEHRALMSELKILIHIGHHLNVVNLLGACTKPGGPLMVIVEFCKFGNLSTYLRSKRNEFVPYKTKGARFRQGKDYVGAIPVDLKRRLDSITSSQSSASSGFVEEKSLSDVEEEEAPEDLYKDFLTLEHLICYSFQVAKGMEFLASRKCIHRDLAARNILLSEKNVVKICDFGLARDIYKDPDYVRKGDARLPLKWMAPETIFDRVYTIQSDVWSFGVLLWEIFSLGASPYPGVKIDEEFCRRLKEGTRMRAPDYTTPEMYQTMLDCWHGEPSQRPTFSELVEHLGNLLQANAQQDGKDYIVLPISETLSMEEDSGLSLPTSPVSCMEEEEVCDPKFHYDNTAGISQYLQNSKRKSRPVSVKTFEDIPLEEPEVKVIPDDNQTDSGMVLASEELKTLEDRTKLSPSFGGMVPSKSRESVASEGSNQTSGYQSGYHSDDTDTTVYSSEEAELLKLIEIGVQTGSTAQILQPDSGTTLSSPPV
Briefly: KINOMEscan competition binding assay, KDR (h). Here is the method:
(§1) Alternatively, the kinase activities of the compounds can be measured using KINOMEscan™, which is based on a competition binding assay that quantitatively measures the ability of a compound to compete with an immobilized, active-site directed ligand. The assay was performed by combining three components: DNA-tagged kinase; immobilized ligand; and a test compound. The ability of the test compound to compete with the immobilized ligand was measured via quantitative PCR of the DNA tag.
(§2) For most assays, kinase-tagged T7 phage strains were prepared in an E. coli host derived from the BL21 strain. E. coli were grown to log-phase and infected with T7 phage and incubated with shaking at 32° C. until lysis. The lysates were centrifuged and filtered to remove cell debris. The remaining kinases were produced in HEK-293 cells and subsequently tagged with DNA for qPCR detection. Streptavidin-coated magnetic beads were treated with biotinylated small molecule ligands for 30 minutes at room temperature to generate affinity resins for kinase assays. The liganded beads were blocked with excess biotin and washed with blocking buffer (SEABLOCK™ (Pierce), 1% BSA, 0.05% TWEEN®20, 1 mM DTT) to remove unbound ligand and to reduce nonspecific binding. Binding reactions were assembled by combining kinases, liganded affinity beads, and test compounds in 1× binding buffer (20% SEABLOCK™, 0.17×PBS, 0.05% TWEEN®20, 6 mM DTT). All reactions were performed in polystyrene 96-well plates in a final volume of 0.135 mL. The assay plates were incubated at room temperature with shaking for 1 hour and the affinity beads were washed with wash buffer (1×PBS, 0.05% TWEEN®20). The beads were then re-suspended in elution buffer (1×PBS, 0.05% TWEEN®20, 0.5 μM non-biotinylated affinity ligand) and incubated at room temperature with shaking for 30 minutes. The kinase concentration in the eluates was measured by qPCR.
(§3) The kinase assays described herein were performed using KINOMEscan™ Profiling Service at DiscoveRx Corporation, 42501 Albrae St. Fremont, Calif.

The subject of data set [3] is U87MG glioblastoma cells. In words: U87MG tumor xenograft model, tumor growth inhibition. The format is in vivo, athymic nude mice (BALB/cA nu/nu). As to conditions: mice, oral gavage. Here is the method:
The efficacy of compounds disclosed herein was evaluated in a standard murine model of tumorigenesis. Human tumor cells (U87MG glioblastoma cells from ATCC) were expended in culture, harvested, and injected subcutaneously onto the rear flank of 6-7 week old female athymic nude mice (BALB/cA nu/nu, Hunan SLAC Laboratory Animal, Co.) (n=6-10 for vehicle group and for each dosing group). When tumors reached a volume of 100-250 mm^3, animals were randomly divided into vehicle control (for example, 5% DMSO+70% Captisol® (30%), 7% HCl (pH1), 18% Captisol® (30%); or 7% DMSO, 7% HCl (pH1), 70% Captisol® (30%), 16% Captisol® (30%), or the like) and compound groups. Subsequent administration of compound by oral gavage begins anywhere from day 0 to day 15 post tumor cell challenge and generally continues with once a day for the duration of the experiment.
Progression of tumor growth is assessed by tumor volumes and recorded as a function of time. The long (L) and short (W) axes of the subcutaneous tumors were measured with calipers twice weekly, and the tumor volume (TV) calculated as (L×W^2)/2). TGI was calculated from the difference between the median tumor volumes of vehicle-treated and drug-treated mice, expressed as a percentage of the median tumor volume of the vehicle-treated control group, by the following relation:
[formula] Initial statistical analysis is done by repeated measures analysis of variance (RMANOVA), followed by Scheffe psot hoc testing for multiple comparisons. Vehicle alone (5% DMSO+70% Captisol® (30%), 7% HCl (pH1), 18% Captisol® (30%); or 7% DMSO, 7% HCl (pH1), 70% Captisol® (30%), 16% Captisol® (30%), or the like) is the negative control.

For data set [4], the target named is T2, c-Met (h) (Homo sapiens, UniProt P08581).
T2 construct: host or cells: E. coli BL21-derived host (T7 phage) or HEK-293
T2 sequence (P08581 25-1390): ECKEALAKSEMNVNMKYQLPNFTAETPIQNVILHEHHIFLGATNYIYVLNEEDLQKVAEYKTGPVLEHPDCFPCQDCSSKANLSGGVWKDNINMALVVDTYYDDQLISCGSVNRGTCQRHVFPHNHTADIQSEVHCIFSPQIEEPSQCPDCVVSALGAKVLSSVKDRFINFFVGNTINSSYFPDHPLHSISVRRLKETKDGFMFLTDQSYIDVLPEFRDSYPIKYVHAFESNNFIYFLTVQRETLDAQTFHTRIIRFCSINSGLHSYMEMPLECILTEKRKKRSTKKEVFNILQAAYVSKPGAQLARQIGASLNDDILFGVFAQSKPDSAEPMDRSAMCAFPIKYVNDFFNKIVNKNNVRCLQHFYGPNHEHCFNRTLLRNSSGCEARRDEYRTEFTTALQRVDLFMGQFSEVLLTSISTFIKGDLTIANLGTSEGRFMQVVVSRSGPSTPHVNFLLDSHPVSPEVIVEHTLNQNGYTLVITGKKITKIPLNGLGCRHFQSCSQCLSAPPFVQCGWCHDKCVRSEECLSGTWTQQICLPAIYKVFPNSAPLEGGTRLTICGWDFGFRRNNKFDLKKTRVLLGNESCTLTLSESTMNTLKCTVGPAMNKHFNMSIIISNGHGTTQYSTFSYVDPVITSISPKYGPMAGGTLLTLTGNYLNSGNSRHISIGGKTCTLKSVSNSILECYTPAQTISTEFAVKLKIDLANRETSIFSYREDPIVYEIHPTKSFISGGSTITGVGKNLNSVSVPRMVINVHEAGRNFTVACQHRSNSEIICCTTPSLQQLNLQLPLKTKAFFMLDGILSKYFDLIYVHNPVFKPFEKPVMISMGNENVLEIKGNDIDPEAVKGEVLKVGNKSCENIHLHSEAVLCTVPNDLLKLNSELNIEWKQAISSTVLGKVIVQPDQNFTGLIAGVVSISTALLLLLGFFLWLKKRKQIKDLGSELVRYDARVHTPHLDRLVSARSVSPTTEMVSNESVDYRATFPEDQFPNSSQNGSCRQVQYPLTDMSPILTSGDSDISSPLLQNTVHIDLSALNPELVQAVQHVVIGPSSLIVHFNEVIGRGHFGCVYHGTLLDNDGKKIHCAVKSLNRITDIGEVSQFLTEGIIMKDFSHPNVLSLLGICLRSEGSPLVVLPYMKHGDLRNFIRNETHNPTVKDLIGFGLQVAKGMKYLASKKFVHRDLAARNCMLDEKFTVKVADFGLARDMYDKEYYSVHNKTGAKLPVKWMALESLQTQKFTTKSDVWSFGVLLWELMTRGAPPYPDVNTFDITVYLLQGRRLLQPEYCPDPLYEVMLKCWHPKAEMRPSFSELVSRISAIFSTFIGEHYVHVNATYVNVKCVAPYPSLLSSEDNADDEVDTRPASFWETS
In words: KINOMEscan competition binding assay, c-Met (h). Here is the method: as §1, §2, §3

Like-named read-outs stand apart in the source and are kept apart here.

The AUC(0-t) is exposure summed from dosing to a finite time, without extrapolation to infinity. The half-life is the time in which the quantity being followed falls by half. Usually Kd stands for the free concentration of one partner at which half of the binding sites on the other are occupied at equilibrium, for simple one-to-one binding.

In the case of `Cc1c(C(=O)Nc2cc(F)c(Oc3ccnc(N)c3)cc2F)c(=O)n(-c2ccccc2)n1C` [Ex. 8, N-(4-((2-aminopyridin-4-yl)oxy)-2,5-difluorophenyl)-1,5-dimethyl-3-oxo-2-phenyl-2,3-dihydro-1H-pyrazole-4-carboxamide], in data set [1] (2 mg/kg), the “clearance (CL) after iv dosing” value stood at 10.2 mL/min/kg, the AUC(0-t) worked out at 3350 ng·h/mL, the half-life is 0.82 h and the Vd came out at 0.51 L/kg. Also, the F in data set [1] (iv dose 2 mg/kg) was 85.1%. The same molecule yielded a Kd in data set [2] of 1500 nM. For the same molecule, the “TGI % (on last day of dosing)” value in data set [3] (6 mg/kg, 14 days) is listed as 13%. Further, the “TGI % (on last day of dosing)” value in data set [3] (20 mg/kg, 14 days) was determined as 25%. Further, the “TGI % (on last day of dosing)” value in data set [3] (60 mg/kg, 14 days) is 43%. Besides, the Kd in data set [4] was 4.8 nM.
Consider `Cc1c(C(=O)Nc2ccc(Oc3ccnc(NC(=O)N4CCOCC4)c3)cn2)c(=O)n(-c2ccccc2)n1C` [Ex. 18, N-(4-((6-(1,5-dimethyl-3-oxo-2-phenyl-2,3-dihydro-1H-pyrazole-4-carboxamido)pyridin-3-yl)oxy)pyridin-2-yl)morpholine-4-carboxamide], for which, in data set [1] (1 mg/kg), the “clearance (CL) after iv dosing” value came to 4 mL/min/kg, the AUC(0-t) is 4290 ng·h/mL, the half-life was 1.23 h and the Vd is 0.36 L/kg. The F in data set [1] (iv dose 1 mg/kg) is given as 77.2%. Also, the Kd in data set [2] came out at 39 nM. In data set [3] (6 mg/kg, 14 days), the “TGI % (on last day of dosing)” value was determined as 28%. In data set [3] (20 mg/kg, 14 days), the “TGI % (on last day of dosing)” value was determined as 49%. Also, the “TGI % (on last day of dosing)” value in data set [3] (60 mg/kg, 14 days) is 57%. Binding in data set [4] was put at a Kd of 2.9 nM.
Take `Cc1c(C(=O)Nc2ccc(Oc3ccnc(N)c3Cl)cc2)c(=O)n(-c2ccccc2)n1C` [Ex. 2, N-(4-((2-amino-3-chloropyridin-4-yl)oxy)phenyl)-1,5-dimethyl-3-oxo-2-phenyl-2,3-dihydro-1H-pyrazole-4-carboxamide]: in data set [1] (1 mg/kg), the “clearance (CL) after iv dosing” value stood at 23.2 mL/min/kg, the AUC(0-t) is 685 ng·h/mL, the half-life is 4.1 h and the Vd is 1.75 L/kg. For the same molecule, the F in data set [1] (iv dose 1 mg/kg) turned out to be 98.5%. This molecule also had a dissociation constant (Kd) in data set [2] of 43 nM. The “TGI % (on last day of dosing)” value in data set [3] (6 mg/kg, 14 days) worked out at 29%. Also, in data set [3] (20 mg/kg, 14 days), the “TGI % (on last day of dosing)” value was determined as 69%. Moreover, the “TGI % (on last day of dosing)” value in data set [3] (60 mg/kg, 14 days) was 82%. For the same molecule, in data set [4], binding was characterised by a dissociation constant (Kd) of 13 nM.
With `CC(=O)Nc1cc(Oc2ccc(NC(=O)c3c(C)n(C)n(-c4ccccc4)c3=O)nc2)ccn1` [Ex. 17, N-(5-((2-acetamidopyridin-4-yl)oxy)pyridin-2-yl)-1,5-dimethyl-3-oxo-2-phenyl-2,3-dihydro-1H-pyrazole-4-carboxamide], in data set [1] (2 mg/kg), the “clearance (CL) after iv dosing” value worked out at 0.5 mL/min/kg, the AUC(0-t) came out at 69900 ng·h/mL, the half-life is 7.29 h and the Vd is 0.22 L/kg. In data set [1] (iv dose 2 mg/kg), this molecule showed an F of 59.7%. Also, the dissociation constant (Kd) in data set [2] came out at 25 nM. Moreover, the “TGI % (on last day of dosing)” value in data set [3] (6 mg/kg, 12 days) was 26%. Moreover, the “TGI % (on last day of dosing)” value in data set [3] (20 mg/kg, 12 days) was found to be 56%. For the same molecule, in data set [3] (60 mg/kg, 12 days), the “TGI % (on last day of dosing)” value stood at 85%. Besides, in data set [4], binding was characterised by a dissociation constant (Kd) of 20 nM.
